Source: PubChem BioAssay AID2060908 (Molecular Pharmacology Branch, DTP, NCI, 2025)

System: 186277-243-T-J2-PDC complex spheroids, viability
Assay: Anticancer human tumor 186277-243-T-J2-PDC patient-derived colon adenocarcinoma cell line growth inhibition [RAS]
Conditions: for IC50: curve of first compound; for viability, T/C: stronger effect = lower value
Method in brief: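 Multi-cell-type spheroids: tumor cells plus HUVEC endothelial cells and mesenchymal stem cells. RAS-pathway inhibitors were combined with targeted agents, each dosed in half-log steps down from clinical Cmax, or from 10 microM when Cmax was unknown.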

[1] = second compound 0.0316 µM, first compound 0.0316 µM
[2] = second compound 0.0316 µM, first compound 0.1 µM
[3] = second compound 0.0316 µM, first compound 0.316 µM
[4] = second compound 0.0316 µM, first compound 1 µM
[5] = second compound 0.1 µM, first compound 0.0316 µM
[6] = second compound 0.1 µM, first compound 0.1 µM
[7] = second compound 0.1 µM, first compound 0.316 µM
[8] = second compound 0.1 µM, first compound 1 µM
[9] = second compound 0.316 µM, first compound 0.0316 µM
[10] = second compound 0.316 µM, first compound 0.1 µM
[11] = second compound 0.316 µM, first compound 0.316 µM
[12] = second compound 0.316 µM, first compound 1 µM
[13] = second compound 1 µM, first compound 0.0316 µM
[14] = second compound 1 µM, first compound 0.1 µM
[15] = second compound 1 µM, first compound 0.316 µM
[16] = second compound 1 µM, first compound 1 µM
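Note: spheroids exposed to compounds for 7 days before viability read.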

CCN1CCN(Cc2ccc(Nc3ncc(F)c(-c4cc(F)c5nc(C)n(C(C)C)c5c4)n3)nc2)CC1 + C#Cc1c(F)ccc2cc(O)cc(-c3ncc4c(N5CC6CCC(C5)N6)nc(OCC56CCCN5CC(F)C6)nc4c3F)c12
IC50 (second compound 0.0316 µM): 281 nM
IC50 (second compound 0.1 µM): 14.9 nM
IC50 (second compound 0.316 µM): < 3.16 nM
IC50 (second compound 1 µM): < 3.16 nM
IC50 (second compound 3.16 µM): < 3.16 nM
IC50 (second compound 10 µM): < 3.16 nM
viability, T/C (second compound 0.0316 µM, first compound 0.00316 µM): 84.9%
viability, T/C (second compound 0.0316 µM, first compound 0.01 µM): 69.9%
viability, T/C [1]: 66.7%
viability, T/C [2]: 67.2%
viability, T/C [3]: 49.2%
viability, T/C [4]: 22%
viability, T/C (second compound 0.1 µM, first compound 0.00316 µM): 65%
viability, T/C (second compound 0.1 µM, first compound 0.01 µM): 55.3%
viability, T/C [5]: 41.7%
viability, T/C [6]: 31.1%
viability, T/C [7]: 24%
viability, T/C [8]: 16.7%
viability, T/C (second compound 0.316 µM, first compound 0.00316 µM): 28.9%
viability, T/C (second compound 0.316 µM, first compound 0.01 µM): 25.2%
viability, T/C [9]: 21.7%
viability, T/C [10]: 16.6%
viability, T/C [11]: 16.9%
viability, T/C [12]: 13.1%
viability, T/C (second compound 1 µM, first compound 0.00316 µM): 13.1%
viability, T/C (second compound 1 µM, first compound 0.01 µM): 16.7%
viability, T/C [13]: 14.2%
viability, T/C [14]: 11.6%
viability, T/C [15]: 15.6%
viability, T/C [16]: 11.4%
viability, T/C (second compound 3.16 µM, first compound 0.00316 µM): 12.8%
viability, T/C (second compound 3.16 µM, first compound 0.01 µM): 10.5%
viability, T/C (second compound 3.16 µM, first compound 0.0316 µM): 9.68%
viability, T/C (second compound 3.16 µM, first compound 0.1 µM): 10.6%
viability, T/C (second compound 3.16 µM, first compound 0.316 µM): 11.5%
viability, T/C (second compound 3.16 µM, first compound 1 µM): 10.6%
viability, T/C (second compound 10 µM, first compound 0.00316 µM): 10.4%
viability, T/C (second compound 10 µM, first compound 0.01 µM): 8.81%
viability, T/C (second compound 10 µM, first compound 0.0316 µM): 10.7%
viability, T/C (second compound 10 µM, first compound 0.1 µM): 9.4%
viability, T/C (second compound 10 µM, first compound 0.316 µM): 9.61%
viability, T/C (second compound 10 µM, first compound 1 µM): 7.42%

C[C@@H](NC(=O)c1ncnc(N)c1Cl)c1ncc(C(=O)Nc2cc(C(F)(F)F)c(Cl)cn2)s1 + C=CC(=O)N1CCN(c2nc(OCC3CCCN3C)nc3c(F)c(-c4nc(N)cc(C)c4C(F)(F)F)c(Cl)cc23)C(C)C1
IC50 (second compound 0.00316 µM): > 10000 nM
IC50 (second compound 0.01 µM): > 10000 nM
IC50 (second compound 0.0316 µM): > 10000 nM
IC50 (second compound 0.1 µM): > 10000 nM
IC50 (second compound 0.316 µM): > 10000 nM
IC50 (second compound 1 µM): > 10000 nM
viability, T/C (second compound 0.00316 µM, first compound 0.0316 µM): 102%
viability, T/C (second compound 0.00316 µM, first compound 0.1 µM): 104%
viability, T/C (second compound 0.00316 µM, first compound 0.316 µM): 73.2%
viability, T/C (second compound 0.00316 µM, first compound 1 µM): 86.2%
viability, T/C (second compound 0.00316 µM, first compound 3.16 µM): 93.9%
viability, T/C (second compound 0.00316 µM, first compound 10 µM): 106%
viability, T/C (second compound 0.01 µM, first compound 0.0316 µM): 80.8%
viability, T/C (second compound 0.01 µM, first compound 0.1 µM): 83.8%
viability, T/C (second compound 0.01 µM, first compound 0.316 µM): 114%
viability, T/C (second compound 0.01 µM, first compound 1 µM): 89.5%
viability, T/C (second compound 0.01 µM, first compound 3.16 µM): 126%
viability, T/C (second compound 0.01 µM, first compound 10 µM): 71.2%
viability, T/C [1]: 104%
viability, T/C [2]: 113%
viability, T/C [3]: 84.3%
viability, T/C [4]: 97.4%
viability, T/C (second compound 0.0316 µM, first compound 3.16 µM): 122%
viability, T/C (second compound 0.0316 µM, first compound 10 µM): 72.2%
viability, T/C [5]: 86.4%
viability, T/C [6]: 103%
viability, T/C [7]: 103%
viability, T/C [8]: 95.1%
viability, T/C (second compound 0.1 µM, first compound 3.16 µM): 121%
viability, T/C (second compound 0.1 µM, first compound 10 µM): 97.3%
viability, T/C [9]: 103%
viability, T/C [10]: 92.3%
viability, T/C [11]: 95.5%
viability, T/C [12]: 87%
viability, T/C (second compound 0.316 µM, first compound 3.16 µM): 104%
viability, T/C (second compound 0.316 µM, first compound 10 µM): 84.7%
viability, T/C [13]: 104%
viability, T/C [14]: 82%
viability, T/C [15]: 82.4%
viability, T/C [16]: 92.1%
viability, T/C (second compound 1 µM, first compound 3.16 µM): 91.2%
viability, T/C (second compound 1 µM, first compound 10 µM): 89.8%

Cc1nc(N2CCC3(CC2)COC(C)C3N)c(CO)nc1Sc1ccnc(N)c1Cl (stereo unspecified) + CCn1c(-c2cc(N3CCN(C)CC3)cnc2C(C)OC)c2c3cc(ccc31)-c1csc(n1)CC(NC(=O)C1CC1C)C(=O)N1CCCC(N1)C(=O)OCC(C)(C)C2
IC50 (second compound 0.000949 µM): 616 nM
IC50 (second compound 0.003 µM): 128 nM
IC50 (second compound 0.00949 µM): < 31.6 nM
IC50 (second compound 0.03 µM): < 31.6 nM
IC50 (second compound 0.0949 µM): < 31.6 nM
IC50 (second compound 0.3 µM): < 31.6 nM
viability, T/C (second compound 0.000949 µM, first compound 0.0316 µM): 94.6%
viability, T/C (second compound 0.000949 µM, first compound 0.1 µM): 110%
viability, T/C (second compound 0.000949 µM, first compound 0.316 µM): 76.3%
viability, T/C (second compound 0.000949 µM, first compound 1 µM): 30.1%
viability, T/C (second compound 0.000949 µM, first compound 3.16 µM): 9.66%
viability, T/C (second compound 0.000949 µM, first compound 10 µM): 5.87%
viability, T/C (second compound 0.003 µM, first compound 0.0316 µM): 91.2%
viability, T/C (second compound 0.003 µM, first compound 0.1 µM): 58.7%
viability, T/C (second compound 0.003 µM, first compound 0.316 µM): 18.3%
viability, T/C (second compound 0.003 µM, first compound 1 µM): 8.06%
viability, T/C (second compound 0.003 µM, first compound 3.16 µM): 4.43%
viability, T/C (second compound 0.003 µM, first compound 10 µM): 2.87%
viability, T/C (second compound 0.00949 µM, first compound 0.0316 µM): 27.1%
viability, T/C (second compound 0.00949 µM, first compound 0.1 µM): 13.6%
viability, T/C (second compound 0.00949 µM, first compound 0.316 µM): 6.12%
viability, T/C (second compound 0.00949 µM, first compound 1 µM): 4.02%
viability, T/C (second compound 0.00949 µM, first compound 3.16 µM): 3.42%
viability, T/C (second compound 0.00949 µM, first compound 10 µM): 2.67%
viability, T/C (second compound 0.03 µM, first compound 0.0316 µM): 9.41%
viability, T/C (second compound 0.03 µM, first compound 0.1 µM): 7.94%
viability, T/C (second compound 0.03 µM, first compound 0.316 µM): 4.32%
viability, T/C (second compound 0.03 µM, first compound 1 µM): 3.62%
viability, T/C (second compound 0.03 µM, first compound 3.16 µM): 2.89%
viability, T/C (second compound 0.03 µM, first compound 10 µM): 2.28%
viability, T/C (second compound 0.0949 µM, first compound 0.0316 µM): 5.71%
viability, T/C (second compound 0.0949 µM, first compound 0.1 µM): 4.9%
viability, T/C (second compound 0.0949 µM, first compound 0.316 µM): 3.65%
viability, T/C (second compound 0.0949 µM, first compound 1 µM): 3.26%
viability, T/C (second compound 0.0949 µM, first compound 3.16 µM): 2.76%
viability, T/C (second compound 0.0949 µM, first compound 10 µM): 1.95%
viability, T/C (second compound 0.3 µM, first compound 0.0316 µM): 4.72%
viability, T/C (second compound 0.3 µM, first compound 0.1 µM): 4.35%
viability, T/C (second compound 0.3 µM, first compound 0.316 µM): 3.45%
viability, T/C (second compound 0.3 µM, first compound 1 µM): 3.1%
viability, T/C (second compound 0.3 µM, first compound 3.16 µM): 2.4%
viability, T/C (second compound 0.3 µM, first compound 10 µM): 1.92%
